Paper PMC5830402, “Cell-based glycan arrays for probing glycan–glycan binding protein interactions” (Nature Communications, 2018)

How the values were obtained:
[1] = target: T1, ST3Gal4 (human α2-3ST) (Homo sapiens, UniProt Q11206); experiment: transfer to Lec2 cell surface, ECL lectin flow cytometry; biotin-azide / streptavidin detection; type: cell-based; conditions: added recombinant enzyme; acceptor N-glycan LacNAc on Lec2 CHO cells; 37 °C, 1 h
T1 construct: recombinant glycosyltransferase
T1 sequence (Q11206 27-333 limits assumed): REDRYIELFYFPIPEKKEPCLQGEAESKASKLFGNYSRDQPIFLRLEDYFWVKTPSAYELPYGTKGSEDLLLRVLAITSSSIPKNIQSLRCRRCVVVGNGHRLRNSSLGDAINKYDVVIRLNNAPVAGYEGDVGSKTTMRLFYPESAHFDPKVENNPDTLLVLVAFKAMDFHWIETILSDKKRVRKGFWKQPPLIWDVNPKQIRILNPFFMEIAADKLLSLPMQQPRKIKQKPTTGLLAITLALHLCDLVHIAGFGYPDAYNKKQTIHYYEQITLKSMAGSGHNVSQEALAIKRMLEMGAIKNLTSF

[2] = target: T2, ST6Gal1 (rat α2-6ST) (Rattus norvegicus, UniProt P13721); experiment: as above; type: cell-based; conditions: added recombinant enzyme; acceptor N-glycan LacNAc on Lec2 CHO cells; 37 °C, 1 h
T2 construct: recombinant glycosyltransferase
T2 sequence (P13721 27-403 limits assumed): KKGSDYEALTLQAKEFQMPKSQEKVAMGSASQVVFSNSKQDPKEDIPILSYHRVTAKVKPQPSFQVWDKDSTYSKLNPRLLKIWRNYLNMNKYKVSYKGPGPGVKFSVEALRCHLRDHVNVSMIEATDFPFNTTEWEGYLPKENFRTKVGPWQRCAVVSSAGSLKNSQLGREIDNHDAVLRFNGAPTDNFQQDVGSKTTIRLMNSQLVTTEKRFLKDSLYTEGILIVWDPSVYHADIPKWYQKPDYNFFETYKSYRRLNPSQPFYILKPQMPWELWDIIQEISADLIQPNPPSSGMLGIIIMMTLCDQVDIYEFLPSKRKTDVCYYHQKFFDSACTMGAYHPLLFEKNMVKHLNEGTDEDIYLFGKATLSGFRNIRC

C#CCOC(=O)N[C@H]1[C@H]([C@H](O)[C@H](O)CO)O[C@](OP(=O)(O)OC[C@H]2O[C@@H](n3ccc(N)nc3=O)[C@H](O)[C@@H]2O)(C(=O)O)C[C@@H]1O [compound 7, CMP-SiaPoc]
transfer to Lec2 cell surface, ECL lectin flow cytometry; biotin-azide / strepta [1]: Upon sialylation by ST3Gal4 and ST6Gal1, Lec2 CHO cells showed a reduction in ECL binding | transfer to Lec2 cell surface, ECL lectin flow cytometry; biotin-azide / strepta [2]: Upon sialylation by ST3Gal4 and ST6Gal1, Lec2 CHO cells showed a reduction in ECL binding
